{"source": "paper PMC3830869", "about": "“Total Chemical Synthesis of a Heterodimeric Interchain Bis-Lactam-Linked Peptide: Application to an Analogue of Human Insulin-Like Peptide 3” (International Journal of Peptides, 2013)", "key": {"RXFP2 [1]": {"target": "T1, RXFP2 (Homo sapiens, UniProt Q8WXD0)", "T1 sequence (Q8WXD0 whole entry)": "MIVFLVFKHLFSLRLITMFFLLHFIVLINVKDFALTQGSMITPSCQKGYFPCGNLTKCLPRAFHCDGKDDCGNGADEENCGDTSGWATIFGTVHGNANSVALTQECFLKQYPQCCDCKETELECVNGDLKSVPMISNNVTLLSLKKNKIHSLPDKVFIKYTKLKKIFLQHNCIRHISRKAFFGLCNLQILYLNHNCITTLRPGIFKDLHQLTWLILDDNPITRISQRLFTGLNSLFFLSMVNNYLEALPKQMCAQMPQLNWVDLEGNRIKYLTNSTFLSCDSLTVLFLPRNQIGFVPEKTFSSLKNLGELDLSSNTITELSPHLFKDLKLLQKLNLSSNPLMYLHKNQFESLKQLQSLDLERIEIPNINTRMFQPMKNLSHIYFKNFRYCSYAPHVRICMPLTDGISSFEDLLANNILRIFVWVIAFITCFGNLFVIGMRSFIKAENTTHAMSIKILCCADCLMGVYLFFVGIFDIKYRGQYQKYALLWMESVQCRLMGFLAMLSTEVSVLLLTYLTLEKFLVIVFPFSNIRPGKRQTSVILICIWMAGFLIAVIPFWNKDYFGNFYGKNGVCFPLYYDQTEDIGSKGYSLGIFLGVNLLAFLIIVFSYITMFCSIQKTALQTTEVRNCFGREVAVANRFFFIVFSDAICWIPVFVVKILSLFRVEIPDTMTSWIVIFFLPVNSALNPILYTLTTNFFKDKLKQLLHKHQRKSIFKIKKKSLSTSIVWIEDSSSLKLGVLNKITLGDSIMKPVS", "test": "RXFP2 competition binding assay with europium-labelled INSL3", "parameters": "expressed in transfected cells; host or cells: HEK-293T", "settings": "competition with 0.3 nM europium-labelled INSL3, unlabelled peptide 0.01 nM–1 μM; HEK-293T cells stably transfected with RXFP2; mean ± SEM; n in parentheses in Table 1 (6 for human INSL3, 3 for the analogues); read-out: Receptor binding pKi (converted)"}, "RXFP2 [2]": {"target": "T1, RXFP2", "parameters": "expressed in transfected cells", "settings": "data for entry 2 taken from the reference; n = 3; ref [32]; cited from earlier work", "source_text": "Table 1 Receptor binding affinities (pKi) of INSL3 and analogues. Data for entry 2 taken from reference. | column: Receptor binding pKi (n=) || Moreover, to date, there have been no reports of a chemical synthesis of a bis-lactam cross-linked heterodimeric peptide. Consequently, in this study, we undertook an examination of the feasibility of a total step-wise synthesis of, first, a monolactam A24-B22 analogue and, subsequently, a bis-lactam A11-B10/A24-B22 analogue of INSL3. Our novel strategy involved the continuous assembly of both the A- and B-chains, plus the lactam bridges on the same solid support, that is, without using preformed peptide fragments. In order to simplify assembly, the C-terminus of the A-chain was truncated at p ... || Both the ΔA25/26 human INSL3 monolactam A24-B22 and bis-lactam A11-B10/A24-B22 analogues were tested in the RXFP2 competition binding assay (Table 1)."}}, "note": "Numbered stars: 1 amine (or outer) side, 2 acyl side, 3 side chain; on linkers, the order of the positions; unused ones are H or OH. Bridge positions count the residues as written; N and C are the ends. Square brackets hold non-standard residues; d marks the D form. Ends that are not written are not given here. I, II: the chains in the order shown. βAsp = O=C(O)[C@H](CC(=O)[*:2])N[*:1]; Dap = NC[C@H](N)C(=O)O", "data": [{"substance": "I: PTPEMREKLCGHHFVRALVRVCGGPRWSTEA / II: AAATNPARYCCLSGCTQQDLLTLCPY (disulfide I:10-II:11, I:22-II:24, II:10-II:15) [Human INSL3]", "values": [{"measurement": "Ki", "setting": "RXFP2 [1]", "result": 0.575, "unit": "nM"}]}, {"substance": "I: PTPEMREKLCGHHFVRALVRV[Dap]GGPRWSTEA / II: AAATNPARYCCLSGCTQQDLLTL[βAsp] (disulfide I:10-II:11, II:10-II:15; amide I:22-II:C) [ΔA25/26 human INSL3 mono-lactam A24-B22]", "values": [{"measurement": "Ki", "setting": "RXFP2 [1]", "result": 4.47, "unit": "nM"}]}, {"substance": "I: PTPEMREKL[Dap]GHHFVRALVRV[Dap]GGPRWSTEA / II: AAATNPARYCDLSGCTQQDLLTL[βAsp] (amide I:10-II:11, I:22-II:C; disulfide II:10-II:15)", "values": [{"measurement": "Ki", "setting": "RXFP2 [1]", "result": 12, "unit": "nM"}]}, {"substance": "ΔA25/26 human INSL3: INSL3 analogue, C-terminus of the A-chain truncated at position 24, omitting Pro A25 and Tyr A26 (chain 1 AAATNPARYCCLSGCTQQDLLTLC; chain 2 PTPEMREKLCGHHFVRALVRVCGGPRWSTEA; Disulfides A10-A15 (intra-A), A11-B10 and A24-B22 (interchain); A-chain is A1-A24 (Pro A25 and Tyr A26 omitted); B-chain is 31 residues ending in Ala; Ch)", "values": [{"measurement": "Receptor binding pKi", "setting": "RXFP2 [2]", "result": "8.59 ± 0.06 (3)"}]}]}
